Results reported in article PMC13329992, “Catalytic Promiscuity Underpins Metabolic Resistance to Auxinic Herbicides in Echinochloa phyllopogon” (Journal of Agricultural and Food Chemistry, 2026).

Molecular target: T1, CYP81A24 (Echinochloa phyllopogon, UniProt R4WC97)
T1 construct: expressed in E. coli C41(DE3) from pET28 with co-expressed Arabidopsis ATR2 reductase (pCDF, with HemA) and pGro7 chaperonin
T1 sequence (R4WC97 1-515): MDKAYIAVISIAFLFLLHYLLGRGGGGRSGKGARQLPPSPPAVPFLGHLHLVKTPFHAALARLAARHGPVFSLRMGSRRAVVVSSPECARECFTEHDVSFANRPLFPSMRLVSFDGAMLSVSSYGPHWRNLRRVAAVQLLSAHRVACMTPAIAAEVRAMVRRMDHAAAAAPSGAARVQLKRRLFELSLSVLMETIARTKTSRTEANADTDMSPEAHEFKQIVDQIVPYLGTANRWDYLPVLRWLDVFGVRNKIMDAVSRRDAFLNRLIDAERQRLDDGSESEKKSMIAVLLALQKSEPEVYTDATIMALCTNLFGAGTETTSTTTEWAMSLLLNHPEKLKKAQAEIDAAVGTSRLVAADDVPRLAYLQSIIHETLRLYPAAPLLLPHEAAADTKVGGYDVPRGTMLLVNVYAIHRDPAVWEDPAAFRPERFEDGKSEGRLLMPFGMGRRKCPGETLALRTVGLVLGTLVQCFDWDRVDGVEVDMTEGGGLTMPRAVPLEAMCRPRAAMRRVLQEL
Assay: E. coli whole-cell metabolism, LC-MS/MS MRM m/z […] to […]
Type: cell-based
Conditions: 0.2 mM quinclorac, 24 h, 30 °C; co-expressed ATR2 reductase; putative hydroxylated product, no authentic standard

## O=C(O)c1c(Cl)ccc2cc(Cl)cnc12 [quinclorac]
  E. coli whole-cell metabolism, LC-MS/MS MRM m/z 258 to 177: identified in the culture solution of E. coli with CYP81A12, CYP81A21, and CYP81A24
